Activity calls are given as the source filed them. The rule behind the calls is not given here.
Key:
[1] = tested on: HCT-8; assay: Cytotoxicity against human HCT8 cells assessed as reduction in cell viability after 24 hrs by MTT assay; format: functional, cell-based
[2] = tested on: Escherichia coli; assay: Antimicrobial activity against Escherichia coli ATCC 25922 assessed as reduction in microbial growth after 24 hrs by CLSI based broth microdilution method; format: functional, organism-based
[3] = tested on: Mycolicibacterium smegmatis; assay: Antimicrobial activity against Mycobacterium smegmatis MC2155 […] assessed as reduction in microbial growth after 24 hrs by CLSI based broth microdilution method; format: functional, organism-based
[4] = tested on: Staphylococcus epidermidis; assay: Antimicrobial activity against Staphylococcus epidermidis ATCC 12228 assessed as reduction in microbial growth after 24 hrs by CLSI based broth microdilution method; format: functional, organism-based
[5] = species: Homo sapiens; assay: Selectivity ratio of IC50 for inhibition of human CE1 […]
[6] = tested on: A2780; assay: Cytotoxicity against human A2780 cells assessed as reduction in cell viability after 24 hrs by MTT assay; format: functional, cell-based
[7] = tested on: BGC-823; assay: Cytotoxicity against human BGC823 cells assessed as reduction in cell viability after 24 hrs by MTT assay; format: functional, cell-based
[8] = biological target: T1, Cocaine esterase (Homo sapiens, UniProt O00748); assay: Inhibition of human CE2 using fluorescein diacetate as substrate preincubated for 10 mins followed by substrate addition and measured after 10 mins by luminescence assay
T1 sequence (O00748 whole entry): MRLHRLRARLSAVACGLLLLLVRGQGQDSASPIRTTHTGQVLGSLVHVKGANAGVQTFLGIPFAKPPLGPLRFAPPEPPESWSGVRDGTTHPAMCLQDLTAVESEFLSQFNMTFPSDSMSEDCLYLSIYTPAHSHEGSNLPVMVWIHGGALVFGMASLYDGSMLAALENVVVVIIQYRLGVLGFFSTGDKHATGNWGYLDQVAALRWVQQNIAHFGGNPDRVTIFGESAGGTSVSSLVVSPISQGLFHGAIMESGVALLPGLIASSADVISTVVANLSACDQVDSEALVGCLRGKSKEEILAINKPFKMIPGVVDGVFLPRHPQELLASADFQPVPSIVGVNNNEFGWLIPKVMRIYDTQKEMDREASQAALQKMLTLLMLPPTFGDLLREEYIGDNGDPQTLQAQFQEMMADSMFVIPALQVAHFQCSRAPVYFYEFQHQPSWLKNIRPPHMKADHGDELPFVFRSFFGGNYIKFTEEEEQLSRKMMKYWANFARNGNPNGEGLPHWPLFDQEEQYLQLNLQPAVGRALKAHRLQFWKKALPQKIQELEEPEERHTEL

[9] = tested on: Staphylococcus aureus; assay: Antimicrobial activity against Staphylococcus aureus ATCC 25923 assessed as reduction in microbial growth after 24 hrs by CLSI based broth microdilution method; format: functional, organism-based
[10] = tested on: Bel-7402; assay: Cytotoxicity against human Bel7402 cells assessed as reduction in cell viability after 24 hrs by MTT assay; format: functional, cell-based
[11] = tested on: A549; assay: Cytotoxicity against human A549 cells assessed as reduction in cell viability after 24 hrs by MTT assay; format: functional, cell-based
[12] = tested on: Peritoneal macrophage; assay: Antiinflammatory activity in C57BL/6J mouse Peritoneal macrophages assessed as reduction in LPS-induced TNFalpha secretion after 24 hrs; format: functional, cell-based
[13] = biological target: T2, Tyrosine-protein phosphatase non-receptor type 1 (Homo sapiens) (UniProt P18031); assay: Inhibition of recombinant human GST-tagged PTP1B using para-nitrophenyl phosphate as substrate incubated for 10 mins by spectrophotometric method
T2 sequence (whole entry): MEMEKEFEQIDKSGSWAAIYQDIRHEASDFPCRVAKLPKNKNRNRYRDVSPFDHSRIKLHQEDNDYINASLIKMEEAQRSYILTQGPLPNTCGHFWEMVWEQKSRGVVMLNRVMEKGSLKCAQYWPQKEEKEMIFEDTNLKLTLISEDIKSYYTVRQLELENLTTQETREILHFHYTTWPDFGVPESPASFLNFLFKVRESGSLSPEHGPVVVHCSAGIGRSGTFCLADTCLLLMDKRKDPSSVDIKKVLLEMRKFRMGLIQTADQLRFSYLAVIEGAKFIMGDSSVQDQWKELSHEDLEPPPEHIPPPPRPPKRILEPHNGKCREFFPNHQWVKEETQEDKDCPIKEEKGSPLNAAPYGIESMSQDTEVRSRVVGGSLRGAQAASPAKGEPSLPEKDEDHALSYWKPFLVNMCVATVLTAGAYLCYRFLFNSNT

[14] = tested on: HepG2; assay: Cytoprotection activity in human HepG2 cells assessed as reduction in acetaminophen-induced cell injury after 48 hrs by MTT assay; format: functional, cell-based
[15] = biological target: T3, Liver carboxylesterase 1 (Homo sapiens, UniProt P23141); assay: Inhibition of human CE1 using D-luciferin methyl ester as substrate preincubated for 10 mins followed by substrate addition and measured after 10 mins by luminescence assay
T3 sequence (P23141 whole entry): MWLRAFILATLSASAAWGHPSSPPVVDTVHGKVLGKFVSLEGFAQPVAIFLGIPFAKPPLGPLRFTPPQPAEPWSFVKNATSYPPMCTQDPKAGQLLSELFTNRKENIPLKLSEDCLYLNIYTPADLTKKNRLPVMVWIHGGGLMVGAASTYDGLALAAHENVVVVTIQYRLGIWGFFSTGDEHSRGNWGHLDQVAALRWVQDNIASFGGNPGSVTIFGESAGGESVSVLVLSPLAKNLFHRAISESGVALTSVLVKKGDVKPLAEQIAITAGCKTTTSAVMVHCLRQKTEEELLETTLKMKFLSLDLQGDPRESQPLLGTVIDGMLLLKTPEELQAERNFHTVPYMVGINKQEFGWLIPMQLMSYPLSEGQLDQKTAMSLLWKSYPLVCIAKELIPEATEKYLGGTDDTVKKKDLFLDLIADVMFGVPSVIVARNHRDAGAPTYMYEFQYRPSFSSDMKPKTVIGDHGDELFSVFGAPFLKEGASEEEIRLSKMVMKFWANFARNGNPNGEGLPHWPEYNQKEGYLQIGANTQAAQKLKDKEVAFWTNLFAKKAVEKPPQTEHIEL

In the case of `COc1cc2c(cc1OC)C([C@H](C)c1ccc(OC)c(OC)c1O)=NCC2`, the Activity [1] is reported as “inactive”, the Activity [2] is reported as “inactive” and the Activity [3] is reported as “inactive”. For the same compound, the Activity [4] was “inactive”, the Ratio IC50 [5] was 14.1 and the Activity [6] was “inactive”. The Activity [7] was “inactive”, the IC50 [8] was 7.1 µM and the Activity [9] was “inactive”. The Activity [10] was “inactive”, the Activity [11] was “inactive” and the Activity [12] was “inactive”. For the same compound, the inhibition [13] was “inactive”, the Activity [14] was “inactive” and the IC50 [15] was > 100 µM.
With `COc1cc2c(cc1OC)C([C@@H](C)c1ccc(OC)c(OC)c1O)=NCC2` the Activity [1] was “inactive”, the Activity [2] was “inactive” and the Activity [3] was “inactive”. The Activity [4] was “inactive”, the Ratio IC50 [5] was 11.6 and the Activity [6] was “inactive”. For the same compound, the Activity [7] was “inactive”, the IC50 [8] was 8.7 µM and the Activity [9] was “inactive”. For the same compound, the Activity [10] was “inactive”, the Activity [11] was “inactive” and the Activity [12] was “inactive”. The inhibition [13] was “inactive”, the Activity [14] was “inactive” and the IC50 [15] was > 100 µM.
With `COc1cc2cc[n+]3c(c2cc1OC)[C@@](C)(O)c1ccc(OC)c(OC)c1C3` the Activity [1] was “inactive”, the Activity [2] was “inactive” and the Activity [3] was “inactive”. The Activity [4] was “inactive”, the Ratio IC50 [5] was 21.8 and the Activity [6] was “inactive”. The Activity [7] was “inactive”, the IC50 [8] was 4.6 µM and the Activity [9] was “inactive”. For the same compound, the Activity [10] was “inactive”, the Activity [11] was “inactive” and the Activity [12] was “inactive”. The inhibition [13] was “inactive”, the Activity [14] was “inactive” and the IC50 [15] was > 100 µM.
With `COc1cc2c(cc1OC)C([C@](C)(OC)c1ccc(OC)c(OC)c1O)=NCC2` the Activity [1] was “inactive”, the Activity [2] was “inactive” and the Activity [3] was “inactive”. For the same compound, the Activity [4] was “inactive”, the Ratio IC50 [5] was 20 and the Activity [6] was “inactive”. The Activity [7] was “inactive”, the IC50 [8] was 5 µM and the Activity [9] was “inactive”. The Activity [10] was “inactive”, the Activity [11] was “inactive” and the Activity [12] was “inactive”. The inhibition [13] was “inactive”, the Activity [14] was “inactive” and the IC50 [15] was > 100 µM.
`COc1cc2ccnc([C@H](C)c3ccc(OC)c(OC)c3O)c2cc1OC` was tested, and the Activity [1] was “inactive”, the Activity [2] was “inactive” and the Activity [3] was “inactive”. For the same compound, the Activity [4] was “inactive”, the Activity [6] was “inactive” and the Activity [7] was “inactive”. The IC50 [8] was > 100 µM, the Activity [9] was “inactive” and the Activity [10] was “inactive”. For the same compound, the Activity [11] was “inactive”, the Activity [12] was “inactive” and the inhibition [13] was “inactive”. For the same compound, the Activity [14] was “inactive”.
`COc1cc2c(cc1OC)[C@@]1(Oc3c(ccc(OC)c3OC)[C@]1(C)O)N(C=O)CC2` was tested, and the Activity [1] was “inactive”, the Activity [2] was “inactive” and the Activity [3] was “inactive”. The Activity [4] was “inactive”, the Activity [6] was “inactive” and the Activity [7] was “inactive”. The Activity [9] was “inactive”, the Activity [10] was “inactive” and the Activity [11] was “inactive”. For the same compound, the Activity [12] was “inactive”, the inhibition [13] was “inactive” and the Activity [14] was “inactive”. For the same compound, the IC50 [15] was > 100 µM.
In the case of `COc1cc2cc[n+]3c(c2cc1OC)[C@](C)(O)c1ccc(OC)c(OC)c1C3`, the Activity [1] is reported as “inactive”, the Activity [2] is reported as “inactive” and the Activity [3] is reported as “inactive”. The Activity [4] was “inactive”, the Ratio IC50 [5] was 7.6 and the Activity [6] was “inactive”. The Activity [7] was “inactive”, the IC50 [8] was 13.2 µM and the Activity [9] was “inactive”. For the same compound, the Activity [10] was “inactive”, the Activity [11] was “inactive” and the Activity [12] was “inactive”. For the same compound, the inhibition [13] was “inactive”, the Activity [14] was “inactive” and the IC50 [15] was > 100 µM.
For `COc1cc2ccnc([C@]3(C)OC(=O)c4c3ccc(OC)c4OC)c2cc1OC`, the Activity [1] was “inactive”, the Activity [2] was “inactive” and the Activity [3] was “inactive”. For the same compound, the Activity [4] was “inactive”, the Ratio IC50 [5] was 28.9 and the Activity [6] was “inactive”. The Activity [7] was “inactive”, the IC50 [8] was 3.5 µM and the Activity [9] was “inactive”. For the same compound, the Activity [10] was “inactive”, the Activity [11] was “inactive” and the Activity [12] was “inactive”. The inhibition [13] was “inactive”, the Activity [14] was “inactive” and the IC50 [15] was > 100 µM.
`COc1cc2c(cc1OC)[C@]1(Oc3c(ccc(OC)c3OC)[C@@]1(C)O)N(C=O)CC2` was tested, and the Activity [1] was “inactive”, the Activity [2] was “inactive” and the Activity [3] was “inactive”. For the same compound, the Activity [4] was “inactive”, the Activity [6] was “inactive” and the Activity [7] was “inactive”. For the same compound, the Activity [9] was “inactive”, the Activity [10] was “inactive” and the Activity [11] was “inactive”. The Activity [12] was “inactive”, the inhibition [13] was “inactive” and the Activity [14] was “inactive”. The IC50 [15] was > 100 µM.
In the case of `COc1cc2c(cc1OC)C([C@@](C)(OC)c1ccc(OC)c(OC)c1O)=NCC2`, the Activity [1] is reported as “inactive”, the Activity [2] is reported as “inactive” and the Activity [3] is reported as “inactive”. For the same compound, the Activity [4] was “inactive”, the Ratio IC50 [5] was 10.8 and the Activity [6] was “inactive”. The Activity [7] was “inactive”, the IC50 [8] was 9.3 µM and the Activity [9] was “inactive”. The Activity [10] was “inactive”, the Activity [11] was “inactive” and the Activity [12] was “inactive”. The inhibition [13] was “inactive”, the Activity [14] was “inactive” and the IC50 [15] was > 100 µM.
For `COc1cc2ccnc([C@@H](C)c3ccc(OC)c(OC)c3O)c2cc1OC`, the Activity [1] was “inactive”, the Activity [2] was “inactive” and the Activity [3] was “inactive”. For the same compound, the Activity [4] was “inactive”, the Activity [6] was “inactive” and the Activity [7] was “inactive”. The IC50 [8] was > 100 µM, the Activity [9] was “inactive” and the Activity [10] was “inactive”. The Activity [11] was “inactive”, the Activity [12] was “inactive” and the inhibition [13] was “inactive”. The Activity [14] was “inactive”.
`O=[N+]([O-])c1ccc(OP(=O)(O)Oc2ccc([N+](=O)[O-])cc2)cc1` was tested, and the IC50 [15] was 0.2 µM.
In the case of `COc1cc2ccnc([C@@]3(C)OC(=O)c4c3ccc(OC)c4OC)c2cc1OC`, the Activity [1] is reported as “inactive”, the Activity [2] is reported as “inactive” and the Activity [3] is reported as “inactive”. The Activity [4] was “inactive”, the Ratio IC50 [5] was 49.3 and the Activity [6] was “inactive”. The Activity [7] was “inactive”, the IC50 [8] was 2 µM and the Activity [9] was “inactive”. For the same compound, the Activity [10] was “inactive”, the Activity [11] was “inactive” and the Activity [12] was “inactive”. For the same compound, the inhibition [13] was “inactive”, the Activity [14] was “inactive” and the IC50 [15] was > 100 µM.

From ChEMBL document CHEMBL4602685, “Yanhusanines A-F, Isoquinoline-Derived Alkaloid Enantiomers from Corydalis yanhusuo and Their Biological Activity” (J Nat Prod, 2020)
